Results reported in paper PMC12426595 (Cancer Research Communications, 2025).

What was measured:
[1] = In vivo DDI: gilteritinib pharmacokinetics; design: species or system mouse; details: plasma, po, 30 mg/kg, gilteritinib 30 mg/kg oral
P-gp = details: cited from earlier work
[2] = molecular target: T1, BTK-NanoLuc Fusion Vector in HEK293 cells (Homo sapiens, UniProt Q06187); test: NanoBRET intracellular binding assay, BTK; details: read-out: EC50 BTK (NanoBRET), positive control
T1 construct: host or cells: HEK293
Procedure: Intracellular binding was determined with a NanoBRET assay (Reaction Biology). […] The protein kinase inhibitors dasatinib and […] were used as positive controls.

[3] = In vivo DDI: pravastatin pharmacokinetics; details: male, C57BL/6, mouse, plasma, po, 20 mg/kg, C57BL/6 male, pravastatin 20 mg/kg oral
[4] = female, C57BL/6, mouse, C57BL/6 female, perpetrator TL-895 3 mg/kg
[5] = female, C57BL/6, mouse, C57BL/6 female, perpetrator vehicle
[6] = female, NSG (NOD/SCID gamma), mouse, NSG female, perpetrator TL-895 3 mg/kg
[7] = female, NSG (NOD/SCID gamma), mouse, NSG female, perpetrator vehicle
[8] = male, C57BL/6, mouse, C57BL/6 male, perpetrator TL-895 3 mg/kg
[9] = male, C57BL/6, mouse, C57BL/6 male, perpetrator vehicle
[10] = male, NSG (NOD/SCID gamma), mouse, NSG male, perpetrator TL-895 3 mg/kg
[11] = male, NSG (NOD/SCID gamma), mouse, NSG male, perpetrator vehicle

T1 sequence (Q06187 whole entry, the tested form may be a part): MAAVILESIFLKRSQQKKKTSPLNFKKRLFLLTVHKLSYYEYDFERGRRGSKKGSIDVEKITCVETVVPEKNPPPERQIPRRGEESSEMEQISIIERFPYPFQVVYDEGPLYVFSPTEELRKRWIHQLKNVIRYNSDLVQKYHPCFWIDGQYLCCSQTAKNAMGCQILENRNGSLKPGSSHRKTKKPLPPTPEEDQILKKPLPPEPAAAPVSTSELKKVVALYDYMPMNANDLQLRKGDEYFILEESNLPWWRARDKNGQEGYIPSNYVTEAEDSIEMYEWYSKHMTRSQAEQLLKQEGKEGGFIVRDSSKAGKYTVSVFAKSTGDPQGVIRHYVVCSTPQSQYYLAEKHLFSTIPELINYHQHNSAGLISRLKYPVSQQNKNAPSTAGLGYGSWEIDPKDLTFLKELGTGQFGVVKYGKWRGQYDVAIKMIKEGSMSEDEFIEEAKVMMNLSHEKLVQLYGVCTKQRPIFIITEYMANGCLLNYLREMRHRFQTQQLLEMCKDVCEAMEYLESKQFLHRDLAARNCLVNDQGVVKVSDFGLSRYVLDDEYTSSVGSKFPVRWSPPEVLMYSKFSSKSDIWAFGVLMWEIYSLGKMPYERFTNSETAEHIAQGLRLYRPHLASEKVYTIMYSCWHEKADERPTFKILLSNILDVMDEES

Compound: CCc1nc(C(N)=O)c(Nc2ccc(N3CCC(N4CCN(C)CC4)CC3)c(OC)c2)nc1NC1CCOCC1 [Gilteritinib, gilteritinib]
- AUC [1, 4]: 6440 ng·h/mL
- Cmax [1, 4]: 688 ± 97 ng/mL
- AUC [1, 5]: 6980 ng·h/mL
- Cmax [1, 5]: 787 ± 102 ng/mL
- AUC [1, 6]: 4830 ng·h/mL
- Cmax [1, 6]: 507 ± 28 ng/mL
- AUC [1, 7]: 4930 ng·h/mL
- Cmax [1, 7]: 593 ± 87 ng/mL
- AUC [1, 8]: 5130 ng·h/mL
- Cmax [1, 8]: 502 ± 113 ng/mL
- AUC [1, 9]: 4960 ng·h/mL
- Cmax [1, 9]: 469 ± 51 ng/mL
- AUC [1, 10]: 4370 ng·h/mL
- Cmax [1, 10]: 421 ± 20 ng/mL
- AUC [1, 11]: 4410 ng·h/mL
- Cmax [1, 11]: 440 ± 86 ng/mL

Compound: C=CC(=O)N1CCC[C@@H](n2nc(-c3ccc(Oc4ccccc4)cc3)c3c(N)ncnc32)C1 [ibrutinib]
- effect of P-gp deficiency on overall exposure (P-gp): only minimal effects

Compound: CNC(=O)c1ccccc1Nc1nc(Nc2ccc(N3CCNCC3)cc2)ncc1Cl [CTx-0294885]
- EC50 [2]: 30.1 nM

Compound: CC[C@H](C)C(=O)O[C@H]1C[C@H](O)C=C2C=C[C@H](C)[C@H](CC[C@@H](O)C[C@@H](O)CC(=O)O)[C@H]21 [Pravastatin, pravastatin]
- AUC ([3]; perpetrator TL-895 10 mg/kg): 49.8 ± 7.6 ng·h/mL
- Cmax ([3]; perpetrator TL-895 10 mg/kg): 182 ± 31 ng/mL
- AUC ([3]; perpetrator rifampin 20 mg/kg): 333 ± 64 ng·h/mL
- Cmax ([3]; perpetrator rifampin 20 mg/kg): 994 ± 148 ng/mL
- AUC ([3]; perpetrator vehicle): 102 ± 42 ng·h/mL
- Cmax ([3]; perpetrator vehicle): 406 ± 186 ng/mL
